In US7498349B2, “Biaryl compounds having anti-infective activity” (Genesoft Pharmaceuticals, Inc., priority 2002, dated 2009):

Legend:
B. cereus ATCC 11778 = assay: MIC, NCCLS broth microdilution assay; assay type: cell-based, Bacillus cereus; details: B. cereus ATCC 11778
C. albicans ATCC 38247 = assay: MIC, antifungal assay; assay type: cell-based, Candida albicans; details: C. albicans ATCC 38247
E. faecalis ATCC 29212 = assay: MIC, NCCLS broth microdilution assay; assay type: cell-based, Enterococcus faecalis; details: E. faecalis ATCC 29212
[1] = system: S. epidermidis ATCC 12228; assay: MIC, NCCLS broth microdilution assay; assay type: cell-based, Staphylococcus epidermidis
Excerpt: (§1) In vitro biological activity data were collected for a variety of microorganisms, including Bacillus cereus (ATCC 11778), Staphylococcus aureus (ATCC 33591; ATCC 27660, a methicillin resistant strain (MRSA); ATCC 13709, a methicillin sensitive strain (MSSA)), Escherichia coli (ATCC 25922), Enterococcus faecalis (ATCC 29212), Streptococcus pneumoniae (ATCC 49619; ATCC 51422, a penicillin resistant strain (PRSP)), Enterococcus faecium (ATCC 51559, a vancomycin resistant strain (VRE)), and Staphylococcus epidermidis (ATCC 12228).
(§2) The minimal inhibition concentration (MIC) of these compounds was determined using the National Committee for Clinical Laboratory Standards (NCCLS) broth microdilution assay in microtiter plates, as set forth in: (1) the guidelines of the National Committee for Clinical Laboratory Standards (NCCLS) Document M7-A4 (NCCLS, 1997); (2) the guidelines of the National Committee for Clinical Laboratory Standards (NCCLS) Document M11-A4 (NCCLS, 1997); and (3) the guidelines and reference method of the National Committee for Clinical Laboratory Standards (NCCLS) Document M27 -T (NCCLS, 1995).

S. pneumoniae ATCC 49619 = assay: MIC, NCCLS broth microdilution assay; assay type: cell-based, Streptococcus pneumoniae; details: S. pneumoniae ATCC 49619
E. coli ATCC 25922 = assay: MIC, NCCLS broth microdilution assay; assay type: cell-based, Escherichia coli; details: E. coli ATCC 25922
S. aureus ATCC 13709 = assay: MIC, NCCLS broth microdilution assay; assay type: cell-based, Staphylococcus aureus; details: S. aureus ATCC 13709, methicillin sensitive strain (MSSA)
Excerpt: as §1, §2

S. aureus ATCC 27660 = assay: MIC, NCCLS broth microdilution assay; assay type: cell-based, Staphylococcus aureus; details: S. aureus ATCC 27660, methicillin resistant strain (MRSA)
Excerpt: as §1, §2

S. aureus ATCC 33591 = assay: MIC, NCCLS broth microdilution assay; assay type: cell-based, Staphylococcus aureus; details: S. aureus ATCC 33591

SMILES	Minimum Inhibitory Concentration (MIC) (B. cereus ATCC 11778)	Minimum Inhibitory Concentration (MIC) (C. albicans ATCC 38247)	Minimum Inhibitory Concentration (MIC) (E. faecalis ATCC 29212)	Minimum Inhibitory Concentration (MIC) [1]	Minimum Inhibitory Concentration (MIC) (S. pneumoniae ATCC 49619)	Minimum Inhibitory Concentration (MIC) (E. coli ATCC 25922)	Minimum Inhibitory Concentration (MIC) (S. aureus ATCC 13709)	Minimum Inhibitory Concentration (MIC) (S. aureus ATCC 27660)	Minimum Inhibitory Concentration (MIC) (S. aureus ATCC 33591)
O=C(Nc1ccc(-c2cc3ccccc3o2)cc1)c1cccnc1NCCCNC1CCCCC1 [Compound A-12]	+ (12 ≦ MIC ≦ 32)	+ (12 ≦ MIC ≦ 32)	++ (4 < MIC < 12)	+ (12 ≦ MIC ≦ 32)	++ (4 < MIC < 12)	>32 µg/mL	–	–	–
O=C(Nc1ccc(-c2cc3ccccc3o2)nc1)c1ccc(Cl)cc1NCCN1CCNCC1 [Compound A-42]	++ (4 < MIC < 12)	>32 µg/mL	++ (4 < MIC < 12)	++ (4 < MIC < 12)	+ (12 ≦ MIC ≦ 32)	>32 µg/mL	++ (4 < MIC < 12)	++ (4 < MIC < 12)	–
NCCNc1snc(C(=O)Nc2ccc(-c3cc4ccccc4[nH]3)cc2)c1Cl [Compound A-56]	>32 µg/mL	+ (12 ≦ MIC ≦ 32)	+ (12 ≦ MIC ≦ 32)	–	>32 µg/mL	>32 µg/mL	++ (4 < MIC < 12)	++ (4 < MIC < 12)	++ (4 < MIC < 12)
CN(C)CCCNc1snc(C(=O)Nc2ccc(-c3cc4ccccc4[nH]3)cc2)c1Cl [Compound A-57]	+ (12 ≦ MIC ≦ 32)	+++ (MIC ≦ 4)	++ (4 < MIC < 12)	–	>32 µg/mL	>32 µg/mL	++ (4 < MIC < 12)	++ (4 < MIC < 12)	+ (12 ≦ MIC ≦ 32)
O=C(Nc1ccc(-c2cc3ccccc3[nH]2)cc1)c1nsc(NCCN2CCCC2)c1Cl [Compound A-58]	+ (12 ≦ MIC ≦ 32)	+++ (MIC ≦ 4)	++ (4 < MIC < 12)	–	+ (12 ≦ MIC ≦ 32)	>32 µg/mL	+ (12 ≦ MIC ≦ 32)	++ (4 < MIC < 12)	++ (4 < MIC < 12)
O=C(Nc1ccc(-c2cc3ccccc3[nH]2)cc1)c1nsc(NCCN2CCNCC2)c1Cl [Compound A-59]	+ (12 ≦ MIC ≦ 32)	+++ (MIC ≦ 4)	+++ (MIC ≦ 4)	–	+ (12 ≦ MIC ≦ 32)	>32 µg/mL	++ (4 < MIC < 12)	++ (4 < MIC < 12)	+ (12 ≦ MIC ≦ 32)
O=C(Nc1ccc(-c2cc3ccccc3[nH]2)cc1)c1nsc(NCCN2CCOCC2)c1Cl [Compound A-60]	>32 µg/mL	>32 µg/mL	>32 µg/mL	–	>32 µg/mL	>32 µg/mL	>32 µg/mL	>32 µg/mL	>32 µg/mL
CN1CCN(CCNc2snc(C(=O)Nc3ccc(-c4cc5ccccc5[nH]4)cc3)c2Cl)CC1 [Compound A-61]	>32 µg/mL	+++ (MIC ≦ 4)	>32 µg/mL	–	>32 µg/mL	>32 µg/mL	>32 µg/mL	>32 µg/mL	>32 µg/mL
O=C(Nc1ccc(-c2cc3ccccc3[nH]2)cc1)c1cccnc1NCCN1CCOCC1 [Compound A-66]	>32 µg/mL	>32 µg/mL	>32 µg/mL	–	>32 µg/mL	>32 µg/mL	>32 µg/mL	>32 µg/mL	>32 µg/mL
CN(C)CCCNc1snc(C(=O)Nc2ccc(-c3cc4ccccc4s3)nc2)c1Cl [Compound A-67]	+++ (MIC ≦ 4)	+++ (MIC ≦ 4)	+++ (MIC ≦ 4)	–	>32 µg/mL	>32 µg/mL	+++ (MIC ≦ 4)	+++ (MIC ≦ 4)	+++ (MIC ≦ 4)
O=C(Nc1ccc(-c2cc3ccccc3s2)nc1)c1nsc(NCCN2CCCCC2)c1Cl [Compound A-69]	>32 µg/mL	>32 µg/mL	>32 µg/mL	–	>32 µg/mL	>32 µg/mL	>32 µg/mL	>32 µg/mL	>32 µg/mL
O=C(Nc1ccc(-c2cc3ccccc3s2)nc1)c1nsc(NCCN2CCNCC2)c1Cl [Compound A-70]	>32 µg/mL	+++ (MIC ≦ 4)	+++ (MIC ≦ 4)	–	>32 µg/mL	>32 µg/mL	+++ (MIC ≦ 4)	+++ (MIC ≦ 4)	+++ (MIC ≦ 4)
CN(CCCN)CCCNc1snc(C(=O)Nc2ccc(-c3cc4ccccc4s3)nc2)c1Cl [Compound A-71]	+++ (MIC ≦ 4)	++ (4 < MIC < 12)	+++ (MIC ≦ 4)	–	+ (12 ≦ MIC ≦ 32)	+++ (MIC ≦ 4)	+++ (MIC ≦ 4)	+++ (MIC ≦ 4)	+++ (MIC ≦ 4)
O=C(Nc1ccc(-c2cc3ccccc3s2)nc1)c1cccnc1NCCN1CCCCC1 [Compound A-72]	>32 µg/mL	>32 µg/mL	>32 µg/mL	–	>32 µg/mL	>32 µg/mL	>32 µg/mL	>32 µg/mL	>32 µg/mL
O=C(Nc1ccc(-c2cc3ccccc3s2)nc1)c1cccnc1NCCN1CCNCC1 [Compound A-73]	>32 µg/mL	>32 µg/mL	>32 µg/mL	–	>32 µg/mL	>32 µg/mL	>32 µg/mL	>32 µg/mL	>32 µg/mL
CN(C)CCCNc1ncccc1C(=O)Nc1ccc(-c2cc3ccccc3s2)nc1 [Compound A-74]	+ (12 ≦ MIC ≦ 32)	+ (12 ≦ MIC ≦ 32)	++ (4 < MIC < 12)	–	+ (12 ≦ MIC ≦ 32)	>32 µg/mL	++ (4 < MIC < 12)	+ (12 ≦ MIC ≦ 32)	++ (4 < MIC < 12)
NCCCCNc1ncccc1C(=O)Nc1ccc(-c2cc3ccccc3s2)nc1 [Compound A-75]	+++ (MIC ≦ 4)	>32 µg/mL	+++ (MIC ≦ 4)	–	+ (12 ≦ MIC ≦ 32)	>32 µg/mL	+++ (MIC ≦ 4)	+++ (MIC ≦ 4)	+++ (MIC ≦ 4)
CN(CCCN)CCCNc1ncccc1C(=O)Nc1ccc(-c2cc3ccccc3s2)nc1 [Compound A-76]	+ (12 ≦ MIC ≦ 32)	+ (12 ≦ MIC ≦ 32)	++ (4 < MIC < 12)	–	+ (12 ≦ MIC ≦ 32)	+ (12 ≦ MIC ≦ 32)	+++ (MIC ≦ 4)	+++ (MIC ≦ 4)	++ (4 < MIC < 12)
